Melting point data for 24 compounds are collected here from US6855710B2, “Substituted indolines with an inhibitory effect on various kinases and complexes of CDKs” (Boehringer Ingelheim Pharma KG, priority 1998, dated 2005).

Structures are written as SMILES.

In the case of `CN(C)CCN(C=O)c1ccc(N/C(=C2\C(=O)Nc3ccc([N+](=O)[O-])cc32)c2ccccc2)cc1` [Example 327, (Z)-3-{1-[4-(N-(2-dimethylaminoethyl)-N-formyl-amino)-phenylamino]-1-phenyl-methylidene}-5-nitro-2-indolinone], the melting point (as a rule, the temperature of the solid-liquid transition) was in the range of 215 to 218 °C.

For the compound `COC(=O)C(N)Cc1ccc(N/C(=C2\C(=O)Nc3ccc([N+](=O)[O-])cc32)c2ccccc2)cc1.Cl` (stereo not drawn), the melting point was 215 °C (dec.).

Take `COc1ccc(/C(Nc2ccc(CN(C)C)cc2)=C2/C(=O)Nc3ccc([N+](=O)[O-])cc32)cc1` [Example 216, (Z)-3-[1-(4-dimethylaminomethyl-phenylamino)-1-(4-methoxyphenyl)-methylidene]-5-nitro-2-indolinone]: the melting point is 259 to 262 °C.

Consider `CN(C)C(=O)COc1ccc(N/C(=C2\C(=O)Nc3ccccc32)c2ccccc2)cc1` [Example 291, (Z)-3-{1-[4-(dimethylaminocarbonylmethyloxy)-phenylamino]-1-phenyl-methylidene}-2-indolinone], for which the melting point was 224 to 226 °C.

For `CNC(=O)CN(C(C)=O)c1ccc(N/C(=C2\C(=O)Nc3ccccc32)c2ccccc2)cc1` [Example 354, (Z)-3-{1-[4-(N-methylaminocarbonylmethyl-N-acetyl-amino)-phenylamino]-1-phenyl-methylidene}-2-indolinone], the melting point was 270 °C (dec.).

Regarding `NCc1cccc(N/C(=C2\C(=O)Nc3ccccc32)c2ccccc2)c1` [Example 68, (Z)-3-[1-(3-aminomethyl-phenylamino)-1-phenyl-methylidene]-2-indolinone], the melting point lay in the range of 175 to 185 °C.

Take `O=C(CN1CCOCC1)Nc1ccc(N/C(=C2\C(=O)Nc3ccc([N+](=O)[O-])cc32)c2ccccc2)cc1` [Example 96, (Z)-3-[1-(4-morpholinomethylcarbonylamino-phenylamino)-1-phenyl-methylidene]-5-nitro-2-indolinone]: the melting point lay in the range of 265 to 267 °C.

In turn, `CC(=O)NCCC(=O)N(C)c1ccc(N/C(=C2\C(=O)Nc3ccccc32)c2ccccc2)cc1` [Example 378, (Z)-3-{1-[4-(N-(2-acetylamino-ethylcarbonyl)-N-methyl-amino)-phenylamino]-1-phenyl-methylidene}-2-indolinone] gave a melting point of 187 to 189 °C.

`CS(=O)(=O)N(CC(N)=O)c1ccc(N/C(=C2\C(=O)Nc3ccccc32)c2ccccc2)cc1` [Example 191, (Z)-3-{1-[4-(N-aminocarbonylmethyl-N-methylsulphonyl-amino)-phenylamino]-1-phenyl-methylidene}-2-indolinone] registered a melting point of 276 to 278 °C.

Turning to `CC(C)S(=O)(=O)N(CCN(C)C)c1ccc(N/C(=C2\C(=O)Nc3ccccc32)c2ccccc2)cc1` [Example 309, (Z)-3-{1-[4-(N-(2-dimethylaminoethyl)-N-isopropylsulphonyl-amino)-phenylamino]-1-phenyl-methylidene}-2-indolinone], the melting point came out at 247 °C.

Consider `COCCNC(=O)c1ccc(N/C(=C2\C(=O)Nc3ccccc32)c2ccccc2)cc1` [Example 388, (Z)-3-{1-[4-(2-methoxyethylaminocarbonyl)-phenylamino]-1-phenyl-methylidene}-2-indolinone], for which the melting point was in the range of 277 to 279 °C.

Consider `O=C1Nc2ccccc2/C1=C(/Nc1ccccc1C(=O)O)c1ccccc1` [Example 8, (Z)-3-[1-(2-carboxy-phenylamino)-1-phenyl-methylidene]-2-indolinone], for which the melting point lay within 227 to 230 °C.

`O=C1Nc2ccccc2/C1=C(/Nc1ccc(NS(=O)(=O)CCN2CCOCC2)cc1)c1ccccc1` [Example 381, (Z)-3-{1-[4-(2-morpholinoethylsulphonylamino)-phenylamino]-1-phenyl-methylidene}-2-indolinone] gave a melting point of 240 to 242 °C.

On to `CN(C)CCN(c1cccc(N/C(=C2\C(=O)Nc3ccccc32)c2ccccc2)c1)S(C)(=O)=O` [Example 324, (Z)-3-{1-[3-(N-(2-dimethylaminoethyl)-N-methylsulphonyl-amino)-phenylamino]-1-phenyl-methylidene}-2-indolinone], for which the melting point lay within 208 to 211 °C.

Regarding `CCCCN(CCCC)Cc1ccc(N/C(=C2\C(=O)Nc3ccc([N+](=O)[O-])cc32)c2ccccc2)cc1` [Example 165, (Z)-3-[1-(4-Dibutylaminomethyl-phenylamino)-1-phenyl-methylidene]-5-nitro-2-indolinone], the melting point was 175 °C.

On to `COC(=O)C(Cc1ccc(N/C(=C2\C(=O)Nc3ccc([N+](=O)[O-])cc32)c2ccccc2)cc1)NC(=O)OC(C)(C)C` (stereo not drawn) [Example 225, (Z)-3-{1-[4-(2-tert.butoxycarbonylamino-2-methoxycarbonyl-ethyl)-phenylamino]-1-phenyl-methylidene}-5-nitro-2-indolinone], for which the melting point is 139 °C.

Regarding `Cc1ccc(S(=O)(=O)N(CCN(C)C)c2ccc(N/C(=C3\C(=O)Nc4ccccc43)c3ccccc3)cc2)cc1` [Example 454, (Z)-3-[1-(4-(N-(2-dimethylaminoethyl)-N-(p-tolylsulphonyl)-amino)-phenylamino)-1-phenyl-methylidene]-2-indolinone], the melting point lay in the range of 213 to 215 °C.

Compound `CC(C)(C)OC(=O)NCc1cccc(N/C(=C2\C(=O)Nc3ccccc32)c2ccccc2)c1` [Example 67, (Z)-3-[1-(3-tert.butoxycarbonylaminomethyl-phenylamino)-1-phenyl-methylidene]-2-indolinone] had a melting point of 190 to 195 °C.

The compound `CCOC(=O)CN(C)S(=O)(=O)c1ccc(N/C(=C2\C(=O)Nc3ccc([N+](=O)[O-])cc32)c2ccccc2)cc1` [Example 413, (Z)-3-{1-[4-(N-ethoxycarbonylmethyl-N-methyl-aminosulphonyl)-phenylamino]-1-phenyl-methylidene}-5-nitro-2-indolinone] returned a melting point of 206 to 207 °C.

`CC(C)(C)OC(=O)Nc1ccc(N/C(=C2\C(=O)Nc3ccccc32)c2ccccc2)cc1` [Example 28, (Z)-3-[1-(4-tert.butoxycarbonylamino-phenylamino)-1-phenyl-methylidene]-2-indolinone] yielded a melting point of 244 to 246 °C.

Regarding `CS(=O)(=O)N(CC#N)c1ccc(N/C(=C2\C(=O)Nc3ccccc32)c2ccccc2)cc1` [Example 187, (Z)-3-{1-[4-(N-cyanomethyl-N-methylsulphonyl-amino)-phenyl-amino]-1-phenyl-methylidene}-2-indolinone], the melting point was in the range of 266 to 268 °C.

`COC(=O)c1ccccc1N/C(=C1\C(=O)Nc2ccccc21)c1ccccc1` [Example 7, (Z)-3-[1-(2-methoxycarbonyl-phenylamino)-1-phenyl-methylidene]-2-indolinone] gave a melting point of 241 to 244 °C.

Consider `O=C1Nc2ccc([N+](=O)[O-])cc2/C1=C(/Nc1ccc(CN2CC=CCC2)cc1)c1ccccc1` [Example 270, (Z)-3-{1-[4-(3,6-Dihydro-2H-pyridin-1-ylmethyl)-phenylamino]-1-phenyl-methylidene}-5-nitro-2-indolinone], for which the melting point was 222 to 225 °C.

The compound `CC(C)(C)OC(=O)NCCc1ccc(N/C(=C2\C(=O)Nc3ccc([N+](=O)[O-])cc32)c2ccccc2)cc1` [Example 127, (Z)-3-{1-[4-(2-tert.butoxycarbonylamino-ethyl)-phenylamino]-1-phenyl-methylidene}-5-nitro-2-indolinone] displayed a melting point of 213 to 214 °C.
